Holding throughout (format): cell-based
Data set [1] concerns H1299. Put plainly: MTT assay in H1299 cells. The conditions noted are these: for cytotoxicity to H1299 cancer cells compared with mitoxantrone: MTT assay. In outline:
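H1299 cells, 2×10^3 per well, treated with drug 48 h. MTT (5 mg/ml stock) added for 4 h at 37° C, then SDS/DMF lysis overnight; absorbance at 570 nm gives viability, used alongside SEAP reporter readout to correct for cell number.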

Data set [2] relates to T-47D. Put plainly: In vitro cytotoxicity, Development Therapeutics Program. The conditions noted are these: breast cancer, 1.0×10^−5 M. In outline: (§1)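 Read-out is the inhibition level of cancer cell growth in vitro. Each derivative was tested at 1.0×10^−5 M within the Development Therapeutics Program panel.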
Data set [3] has as its system U251. The description is as above. The conditions noted are these: U251, CNS cancer; 1.0×10^−5 M. The method, boiled down: as §1
In data set [4] the test system is different cancer cell lines. The data set is described as follows: In vitro cytotoxicity, Development Therapeutics Program, summary over all cell lines. The conditions noted are these: 1.0×10^−5 M. From the text: From the in vitro experiments of the Development Therapeutics Program of the Cancer Research Institute, the United States, it was known that the synthetic heterocyclic anthraquinone derivatives of the present invention have different inhibition levels to the different cancer cell lines under the concentration of 1.0×10^−5 M. Please refer to Table 2, which is the result of in vitro cytotoxicity of 2,7-disubstituted anthraquinone derivatives of the present invention.

The text below walks through data of patent US20090253709A1 (NATIONAL DEFENSE MEDICAL CENTER, priority 2008, published 2009).

Regarding `O=C(CN1CCCCC1)Nc1ccc2c(c1)C(=O)c1cc(NC(=O)CN3CCCCC3)ccc1C2=O` [Compound 7, 2,7-Bis[2-(piperidino)acetamido]anthraquinone], the “cytotoxicity to H1299 cancer cells compared with mitoxantrone” value (“cytotoxicity … compared with mitoxantrone” for short) in data set [1] is on record as “better than”.

With `CN(C)CC(=O)Nc1ccc2c(c1)C(=O)c1cc(NC(=O)CN(C)C)ccc1C2=O` [Compound 8, 2,7-Bis[2-(dimethylamino)acetamido]anthraquinone], the “Cellular growth rate (%)” value was 24.62% in data set [2] and 16.26% in data set [3]. Further, in data set [4], the “Cellular growth rate (%), Mean” value is listed as 28.70%.

For the compound `CCNCC(=O)Nc1ccc2c(c1)C(=O)c1cc(NC(=O)CNCC)ccc1C2=O` [Compound 10, 2,7-Bis[2-(ethylamino)acetamido]anthraquinone], the “cytotoxicity … compared with mitoxantrone” value in data set [1] is recorded as “better than”.

Turning to `CCN(CC)CCC(=O)Nc1ccc2c(c1)C(=O)c1cc(NC(=O)CCN(CC)CC)ccc1C2=O` [Compound 16, 2,7-Bis[3-(diethylamino)propionamido]anthraquinone], the “Cellular growth rate (%)” value in data set [2] amounted to 68.62%; in data set [3] it was 21.65%. In addition, the “Cellular growth rate (%), Mean” value in data set [4] is on record as 16.33%.

For the compound `O=C(CCN1CCCC1)Nc1ccc2c(c1)C(=O)c1cc(NC(=O)CCN3CCCC3)ccc1C2=O` [Compound 18, 2,7-Bis[3-(pyrrolidino)propionamido]anthraquinone], the “Cellular growth rate (%)” value is listed as 58.98% in data set [2] and 18.16% in data set [3]. Further, the “Cellular growth rate (%), Mean” value in data set [4] is given as 30.97%.

Consider `CC(=O)Nc1ccc2c(c1)C(=O)c1cc(NC(C)=O)ccc1C2=O` [Compound 26, 2,7-Bis(acetamido)anthraquinone], for which the “Cellular growth rate (%)” value in data set [2] is given as 96.17%; in data set [3] it was 95.14%. In addition, in data set [4], the “Cellular growth rate (%), Mean” value was 99.06%.

For `O=C(Cc1ccccc1)Nc1ccc2c(c1)C(=O)c1cc(NC(=O)Cc3ccccc3)ccc1C2=O` [Compound 30, 2,7-Bis(phenylacetamido)anthraquinone], the “MTT assay (cellular cytotoxicity)” value in data set [1] (low concentration (1 μM)) worked out at 107±7%.

In the case of `O=C1c2ccc(NC(=O)C3CC3)cc2C(=O)c2cc(NC(=O)C3CC3)ccc21` [Compound 32, 2,7-Bis(cyclopropanecarbonamido)anthraquinone], the “cytotoxicity … compared with mitoxantrone” value in data set [1] is “better than”. Moreover, the entries for the “Cellular growth rate (%)” value in data set [2] and in data set [3] were 79.75% and 72.62%, respectively. The “Cellular growth rate (%), Mean” value in data set [4] was 91.54%.
